Tests used:
[1] = Test of hydrogen sulfide-specific imaging (matrigel/NaHS sites on backs of rats, optical imaging); format: in vivo
Procedure: In order to examine whether the ^64Cu-labeled complex compounds according to the present disclosure are able to selectively detect in vivo hydrogen sulfide, different materials were injected into the backs of rats, and then each ^64Cu-labeled complex compound according to the present disclosure was injected via the tail, and then selective imaging was examined by optical imaging.
Referring to FIG. 4, at the beginning of the first experiment, matrigel alone, matrigel+1 mg NaCl, matrigel+0.5 mg NaHS, and matrigel+0.05 mg NaHS were injected into four sites on the backs of rats, respectively. 1.8 mCi of the ^64Cu-labeled complex compound according to Example 1 was injected via the tails of rats, immediately followed by optical imaging.

[2] = Test of hydrogen sulfide detection over time (^64CuS formation, radio-TLC); format: physicochemical; set-up: unit not given here; settings: 100 μM NaHS, 37° C.
[3] = system: Arthritis model; assay: Imaging in arthritis model; format: in vivo, DBA/1J mice
Procedure: An arthritis inducer, bovine type II collagen was intradermally injected into the tails of DBA/1J mice twice, and 5 weeks later (about 13-week-old), the mice were used in imaging tests. Arthritis degree of the paw was quantified by scoring.
Nuclear medicine imaging was measured by using an Inveon PET/CT system of Siemens Healthcare, and optical imaging was measured by using IVIS spectrum CT equipment. Cherenkov radiation emitted from ^64Cu was measured by using a highly sensitive CCD (charge-coupled device) camera.
Imaging was measured for 1 minute to 5 minutes, and a radiation dose was about 50 μCi to 2000 μCi, and photographs were variously taken as needed, such as immediately after first injection, at 1 hour, 4 hours, and 24 hours later.

[4] = system: Pancreatitis model; assay: Imaging study in pancreatitis model; format: in vivo, Balb/c mouse; settings: optical images; PET images after excision of tissues
Procedure: Caerulein (50 μg/kg) was intraperitoneally injected into Balb/c mouse seven times at hourly intervals to prepare a pancreatitis model.
Optical images were obtained after injecting each of the ^64Cu-labeled complex compounds of Example 1 and Example 20 into the prepared rat models having pancreatitis, and PET images were obtained after excision of tissues thereof.

[5] = system: EMT6 tumor; assay: Imaging study in EMT6 tumor model (PET); format: in vivo, BALB/c female mouse
Description: To prepare an EMT6 tumor model, the number of cells was counted using a haemacytometer, and 2×10^5 cells were subcutaneously injected into the right flank and left shoulder region of BALB/c female mouse. About 2˜3 weeks later, when formation of about 1 cm of tumor was observed, the mice were used in subsequent experiments.
(§1) PET images were obtained after injecting the ^64Cu-labeled complex compound of Example 1 into the prepared rat model having EMT6 tumor and rat model having CT26 tumor.

[6] = Hydrogen sulfide selectivity test: decomplexation by Cys; format: physicochemical; settings: 100 μM or L-Cys (1 mM), 37° C. for 15 minutes
[7] = Imaging study of hydrogen sulfide in normal rat (PET); format: in vivo; settings: PET image before excision of the tongue
Description: PET images were obtained after injecting the ^64Cu-labeled complex compound of Example 1 into a normal rat, and PET images were obtained again after excision of the tongue thereof. […] However, after excision (B), the uptake was decreased in the same site. […] (C) is a photograph taken before imaging the tongue after excision.

[8] = Hydrogen sulfide selectivity test: decomplexation by Na2S2O3; format: physicochemical; settings: 100 μM or (1 mM), 37° C. for 15 minutes
[9] = system: CT26 tumor; assay: Imaging study in CT26 tumor model (PET); format: in vivo, BALB/c mouse
Description: To prepare a CT26 tumor model, the number of cells was counted using a haemacytometer, and 5×10^6 cells were subcutaneously injected into the right flank of BALB/c mouse. About 10 days later, when formation of about 1 cm of tumor was observed, the mice were used in subsequent experiments.
as §1

[10] = Hydrogen sulfide selectivity test: decomplexation by NaHCO3; format: physicochemical; settings: NaHCO3 (100 μM); 37° C. for 15 minutes
[11] = Hydrogen sulfide selectivity test: decomplexation by GSH; format: physicochemical; settings: 100 μM or GSH (10 mM), 37° C. for 15 minutes
[12] = system: Sepsis model; assay: Imaging study in sepsis model (PET); format: in vivo, ICR mice
Description: After the lower abdominal region of ICR mice was opened, a small puncture in the appendix was made by using a syringe needle to prepare an acute sepsis model.
PET images were obtained after injecting the ^64Cu-labeled complex compound of Example 20 into the prepared rat model having sepsis.

Compound	optical imaging signals at four injected sites (matrigel alone, +NaCl, +0.5 mg NaHS, +0.05 mg NaHS) ([1]; 1.8 mCi via the tails of rats, imaging immediately)	optical imaging signals at four injected sites (matrigel alone, +NaCl, +0.5 mg NaHS, +0.05 mg NaHS) ([1]; after 4 hours)	Formation of copper sulfide (^64CuS) over time ([2]; 10 sec)	Formation of copper sulfide (^64CuS) over time ([2]; 30 sec)	Formation of copper sulfide (^64CuS) over time ([2]; 60 sec)	Formation of copper sulfide (^64CuS) over time ([2]; 5 min)	Formation of copper sulfide (^64CuS) over time ([2]; 10 min)	Formation of copper sulfide (^64CuS) over time ([2]; 15 min)	uptake in the joint region [3]	uptake in the pancreas [4]	uptake in the tumor region versus background [5]	Decomplexation [%] [6] [%]	uptake in the tongue [7]	Decomplexation [%] [8] [%]	uptake in the tumor region versus background [9]	Decomplexation [%] [10] [%]	Decomplexation [%] [11] [%]	uptake in the lung [12]	uptake throughout the body [12]
C1C[N]2CC[N]3CC[N]4CC[N]1[64Cu]243 [Example 1, ^64Cu-labeled cyclen]	signals were detected only in the lower two sites injected with NaHS	signals were still detected only in the lower two sites	13	17	21	100	100	100	selective uptake in the joint region	high uptakes	higher uptake was observed in the tumor region	0.5 ± 0.1	high uptake was observed in the tongue	0.4 ± 0.0	higher uptake was observed in the tumor region	0.6 ± 0.3	0.7 ± 0.0		
C1C[N]2CC[N]3CC[N]1[64Cu]23 [Example 20, ^64Cu-labeled TACN]			0	0	5	13	60	60		high uptakes		0.8 ± 0.3		0.5 ± 0.0		0.6 ± 0.4	2.6 ± 0.0	increased uptake was observed in the lung	uptake was increased throughout the body
